Structures can show the parent of a compound that is named as a salt. Where two headings read alike, the source gives them in different places.

The results in this text go back to PMC2988971 (Journal of medicinal chemistry, 2010).

In one assay the test system is HL-60(TB). Kind of assay: NCI 60 cell line panel tumor cell growth inhibition. The assay is classed as cell-based. The following applies: Homo sapiens.
Assay [1] concerns MDA-MB-435 cells. Nature of the assay: Sulforhodamine B. The assay is classed as cell-based.
The subject of a further assay is A-10 cells. Kind of assay: Effects on cellular microtubules. The assay is classed as cell-based. The settings on record: for Effect on interphase microtubules: 18 h, cell-based phenotypic screen, Fig. 3.
A further assay has as its system SK-OV-3. Kind of assay: SRB antiproliferative assay, parental line of Pgp isogenic pair. The assay is classed as cell-based. The settings on record: Homo sapiens, SK-OV-3, read-out: IC50 (SD) SK-OV-3. On the technique in general: The SRB assay estimates cell density from bound dye.
The next assay relates to SK-OV-3 MDR-1-6/6. Kind of assay: SRB antiproliferative assay, Pgp overexpressing. The assay is classed as cell-based. The following applies: Homo sapiens, SK-OV-3, read-out: IC50 (SD) SK-OV-3 MDR-1-6/6.
The next assay deals with HeLa. Kind of assay: SRB antiproliferative assay, parental line of βIII-tubulin isogenic pair. The settings on record: Homo sapiens, read-out: IC50 (SD) HeLa. The assay is classed as cell-based.
In a further assay the test system is WT βIII. Kind of assay: SRB antiproliferative assay, βIII-tubulin expressing line. The settings on record: for Rr (relative resistance), effect of βIII-tubulin on drug sensitivity: IC50 of the WT βIII cell line divided by IC50 of the parental HeLa cells. The assay is classed as cell-based.
In another assay the target is Bovine brain tubulin (Bos taurus, UniProt P81947+Q6B856). Nature of the assay: Quantitative inhibition of tubulin assembly. The assay is classed as biochemical.
Bovine brain tubulin, sequence (Q6B856 whole entry): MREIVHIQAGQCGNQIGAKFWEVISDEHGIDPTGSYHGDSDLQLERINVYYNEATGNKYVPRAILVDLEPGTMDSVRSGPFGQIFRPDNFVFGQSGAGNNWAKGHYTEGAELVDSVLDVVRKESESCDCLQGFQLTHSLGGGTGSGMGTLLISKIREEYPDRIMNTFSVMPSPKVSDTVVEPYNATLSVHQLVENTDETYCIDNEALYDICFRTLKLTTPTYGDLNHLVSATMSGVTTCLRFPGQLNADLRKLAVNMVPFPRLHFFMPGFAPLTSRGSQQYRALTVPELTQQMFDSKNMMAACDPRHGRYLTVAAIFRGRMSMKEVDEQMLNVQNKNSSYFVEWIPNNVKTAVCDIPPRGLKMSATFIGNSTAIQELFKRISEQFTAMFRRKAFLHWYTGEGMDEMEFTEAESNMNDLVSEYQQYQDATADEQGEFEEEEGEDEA
Bovine brain tubulin, sequence (P81947 whole entry): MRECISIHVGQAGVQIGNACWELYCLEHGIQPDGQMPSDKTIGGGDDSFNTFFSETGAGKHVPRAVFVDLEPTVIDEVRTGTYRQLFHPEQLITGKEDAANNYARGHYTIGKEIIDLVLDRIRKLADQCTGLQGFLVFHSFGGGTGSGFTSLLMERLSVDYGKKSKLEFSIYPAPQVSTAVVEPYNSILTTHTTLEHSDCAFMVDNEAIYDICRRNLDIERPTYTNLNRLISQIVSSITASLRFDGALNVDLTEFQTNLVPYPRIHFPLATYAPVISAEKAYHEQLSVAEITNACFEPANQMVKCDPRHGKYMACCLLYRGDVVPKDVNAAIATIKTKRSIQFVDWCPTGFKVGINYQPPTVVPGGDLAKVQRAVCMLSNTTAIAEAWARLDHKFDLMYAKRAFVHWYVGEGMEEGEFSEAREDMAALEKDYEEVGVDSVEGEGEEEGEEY
The target in assay [2] is tubulin (colchicine site) (Bos taurus, UniProt P81947+Q6B856). Nature of the assay: Inhibition of [3H]colchicine binding to tubulin. Details: species or system bovine. The settings on record: read-out: Inhibition of colchicine binding % Inhibition ± SD.
tubulin (colchicine site), sequence (Q6B856 whole entry): as the sequence (Q6B856 whole entry) above
tubulin (colchicine site), sequence (P81947 whole entry): as the sequence (P81947 whole entry) above
In assay [3] the test system is purified bovine brain tubulin. Nature of the assay: In vitro tubulin polymerization. The assay is classed as biochemical. The settings on record: initial study, Fig. 5; 10% glycerol, 3 mg/mL purified tubulin, 10 mM GTP.
Assay [4] has as its system MDA-MB-435 cells. Nature of the assay: Cell cycle analysis by flow cytometry. The assay is classed as cell-based. The following applies: MDA-MB-435, 24 h, 850 nM 1, 45 nM (±)-3•HCl.
The test system of another assay is K-562. Nature of the assay: NCI 60 cell line panel tumor cell growth inhibition. The following applies: Homo sapiens, K562.
The next assay deals with SR. The description is as above. The following applies: Homo sapiens.
For a further assay, the system named is NCI-H522. Described as above. The settings on record: Homo sapiens.
The test system of a further assay is HCT-15. The description is as above. The settings on record: Homo sapiens.
The next assay concerns KM12. Described as above. The settings on record: Homo sapiens.
For the next assay, the system named is SW-620. The assay is described as above. The following applies: Homo sapiens.
In another assay the test system is SF-295. The description is as above. The settings on record: Homo sapiens.
Another assay has as its system SNB-75. The assay is described as above. The settings on record: Homo sapiens.
A further assay concerns MDA-MB-435. The description is as above. The following applies: Homo sapiens.
The next assay relates to SK-MEL-28. Described as above. The following applies: Homo sapiens.
Another assay relates to SK-MEL-5. The description is as above. The settings on record: Homo sapiens.
The test system of a further assay is UACC-62. The assay is described as above. The settings on record: Homo sapiens.
A further assay concerns OVCAR-3. Described as above. The settings on record: Homo sapiens.
A further assay deals with NCI/ADR-RES. Described as above. The following applies: Homo sapiens.
Another assay relates to A498. The assay is described as above. The settings on record: Homo sapiens.
The next assay concerns RXF 393. The assay is described as above. The settings on record: Homo sapiens.
A further assay concerns MCF7. The assay is described as above. The following applies: Homo sapiens.
For a further assay, the system named is HS 578T. Described as above. The settings on record: Homo sapiens.
In the next assay the test system is MDA-MB-468. Described as above. The settings on record: Homo sapiens.
The subject of a further assay is 60 cancer cell lines. Nature of the assay: NCI 60 tumor cell line panel, summary over the panel.
Setting [5] is: Homo sapiens, MDA-MB-435, read-out: IC50±SD (MDA-MB-435).

The GI50 is the concentration that inhibits growth by half. Usually inhibition stands for the percentage by which the read-out fell short of the control. For the compound `COc1ccc(N(C)c2nc(C)nc3c2CC(C)C3)cc1.Cl` (racemic) [(±)-3•HCl, N-(4-Methoxyphenyl)-N,2,6-trimethyl-6,7-dihydro-5H-cyclopenta[d]pyrimidin-4-aminium chloride], the GI50 in the assay with HL-60(TB), in the assay on K-562, in the assay with SR, with NCI-H522, in the assay on HCT-15 and in the assay with KM12 was under 10 nM in each case. Moreover, the GI50 with SW-620, with SF-295, in the assay with SNB-75, in the assay with MDA-MB-435, in the assay with SK-MEL-28 and in the assay with SK-MEL-5 was under 10 nM in each case. Further, the GI50 in the assay with UACC-62, with OVCAR-3, in the assay on NCI/ADR-RES, in the assay with A498, in the assay on RXF 393 and with MCF7 was under 10 nM throughout. Further, the GI50 in the assay on HS 578T was under 10 nM; in the assay with MDA-MB-468 it was under 10 nM; in the assay on 60 cancer cell lines it was under 30 nM. In addition, the IC50 amounted to 17 ± 0.7 nM in the assay with MDA-MB-435 cells [1] (setting [5]); 38.6 ± 3.1 nM with SK-OV-3; 44.4 ± 3.2 nM in the assay on SK-OV-3 MDR-1-6/6; 37.3 ± 4.1 nM in the assay with HeLa; 23.9 ± 1.7 nM with WT βIII (read-out: IC50 (SD) WT βIII); 1900 ± 10 nM against Bovine brain tubulin. For the same compound, in the assay with A-10 cells (A-10 cells), the “Effect on interphase microtubules” value is listed as “dramatic reorganization of the interphase microtubule network”. Further, the “Rr (relative resistance), effect of βIII-tubulin on drug sensitivity” value is on record as 0.6–0.7 with WT βIII and 0.6 in the assay with WT βIII (listed as (±)-3•HCI). Also, the inhibition at 1 µM in [2] was 60 ± 2%. Moreover, the inhibition at 5 µM in assay [2] came to 84 ± 3%. The “Effect on polymerization of purified tubulin” value in [3] is on record as “potent inhibitors of purified tubulin assembly”. The “Cell cycle effect” value in the assay with MDA-MB-435 cells [4] is “mitotic accumulation”.

As for `COc1cccc(N(C)c2nc(C)nc3c2CC(C)C3)c1.Cl` (racemic) [(±)-5•HCl, N-(3-Methoxyphenyl)-N,2,6-trimethyl-6,7-dihydro-5H-cyclopenta[d]pyrimidin-4-aminium chloride], the IC50 in the assay with MDA-MB-435 cells [1] (setting [5]) worked out at 153 ± 11.1 nM. For the same compound, the “fold less potent than (±)-3•HCl” value in the assay with MDA-MB-435 cells [1] (comparison of 3′-OCH3 with 4′-OCH3 analog, Table 2) is recorded as “about 9 fold”.

For the compound `COc1ccccc1N(C)c1nc(C)nc2c1CC(C)C2.Cl` (racemic) [(±)-6•HCl, N-(2-Methoxyphenyl)-N,2,6-trimethyl-6,7-dihydro-5H-cyclopenta[d]pyrimidin-4-aminium chloride], the outcome in the assay with A-10 cells (Table 2 data, 2′-OCH3 analog) was inactive.

On to `Cc1nc2c(c(N(C)c3ccccc3)n1)CC(C)C2` (racemic) [(±)-7•HCl, N-Phenyl-N,2,6-trimethyl-6,7-dihydro-5H-cyclopenta[d]pyrimidin-4-aminium chloride], for which, in the assay with MDA-MB-435 cells [1] (setting [5]), the IC50 turned out to be 2700 ± 300 nM.

`COc1ccc(/C=C\c2cc(OC)c(OC)c(OC)c2)cc1OP(=O)(O)O` [CA4P, combretastatin A-4 phosphate, reference compound] came in with an IC50 at Bovine brain tubulin of 1000 ± 90 nM. Also, in assay [2], the inhibition at 1 µM worked out at 88 ± 2% and the inhibition at 5 µM amounted to 99 ± 0.2%.

As for `COc1ccc(N(C)c2nc(C)nc3[nH]ccc23)cc1` [Compound 1, N-(4-Methoxyphenyl)-N,2-dimethyl-7H-pyrrolo[2,3-d]pyrimidin-4-amine], the “Effect on interphase microtubules” value with A-10 cells (A-10 cells) is “dramatic reorganization of the interphase microtubule network”. Besides, in the assay on WT βIII, the “Rr (relative resistance), effect of βIII-tubulin on drug sensitivity” value is listed as 0.6–0.7. The IC50 against Bovine brain tubulin stood at 2600 ± 50 nM. In addition, the “Effect on polymerization of purified tubulin” value in assay [3] is recorded as “potent inhibitors of purified tubulin assembly”. Further, the “Cell cycle effect” value in the assay on MDA-MB-435 cells [4] is “mitotic accumulation”. In the assay on 60 cancer cell lines, this compound displayed a GI50 of under 500 nM.

As a reminder, the EC50 is the concentration giving half of the maximal effect. On to “N-(4-Methoxyphenyl)-2,6-dimethyl-6,7-dihydro-5H-cyclopenta[d]pyrimidin-4-amine [(±)-4]”, for which the IC50 in the assay on MDA-MB-435 cells [1] (read-out: IC50±SD (MDA-MB-435), inhibition of proliferation, SRB assay) was over 10000 nM. Further, in the assay with A-10 cells (read-out: EC50 for microtubule depolymerization, concentration required to cause 50% loss of cellular microtubules, A-10 cells), the EC50 was over 40000 nM.
